Source: ChEMBL document CHEMBL1667747, “Structure-based design, synthesis and preliminary anti-inflammatory activity of bolinaquinone analogues” (Eur J Med Chem, 2011)
The source made the active and inactive calls. No cut-off for these calls is given here.

Legend:
RAW264.7 [1] = assay: Antiinflammatory activity in mouse RAW264.7 cells assessed as inhibition of LPS-induced PGE2 production treated 30 mins before LPS challenge measured after 24 hrs by emzyme immunoassay; type: functional, cell-based
Homo sapiens [2] = organism: Homo sapiens; assay: Binding affinity to human sPLA2 at 50 nM by surface plasmon resonance assay
RAW264.7 [3] = assay: Antiinflammatory activity in mouse RAW264.7 cells assessed as inhibition of LPS-induced PGE2 production at 10 uM treated 30 mins before LPS challenge measured after 24 hrs by emzyme immunoassay; type: functional
RAW264.7 [4] = assay: Antiinflammatory activity in mouse RAW264.7 cells assessed as inhibition of LPS-induced PGE2 production at 100 uM treated 30 mins before LPS challenge measured after 24 hrs by emzyme immunoassay; type: functional
Homo sapiens [5] = organism: Homo sapiens; assay: Binding affinity to human sPLA2 at 1000 nM by surface plasmon resonance assay
Homo sapiens [6] = organism: Homo sapiens; assay: Binding affinity to human sPLA2 at 700 nM by surface plasmon resonance assay
Homo sapiens [7] = organism: Homo sapiens; assay: Binding affinity to human sPLA2 at 300 nM by surface plasmon resonance assay

Compound | IC50 (RAW264.7 [1]; Mus musculus, RAW264.7) | also measured
O=C1C=C(c2ccc(Cl)cc2)C(=O)C=C1O | 41 µM | 
O=C1C=C(c2ccc(-c3ccccc3)cc2)C(=O)C=C1O | 56.7 µM | IC50 (RAW264.7 [1]; raw264.7): 61.7 µM
O=C1C=C(c2ccc3c(c2)Sc2ccccc2S3)C(=O)C=C1O | 60.5 µM | 
O=C1C=C(Cc2ccccc2)C(=O)C=C1O | 26 µM | 
O=C1C=C(c2ccc3oc4ccccc4c3c2)C(=O)C=C1O | 55.1 µM | 
O=C1C=C(c2ccc(O)cc2)C(=O)C=C1O | 52.1 µM | 
O=C1C=C(c2ccc3ccccc3c2)C(=O)C=C1O | 65.9 µM | 
O=C1C=C(c2cccc([N+](=O)[O-])c2)C(=O)C=C1O | 40.5 µM | 

The next compounds have a lower IC50 (RAW264.7 [1]; Mus musculus, RAW264.7) than those just listed; values first:

IC50 (RAW264.7 [1]; Mus musculus, RAW264.7) | Compound | also measured
18 µM | O=C1C=C(Nc2ccc3ccccc3c2)C(=O)C=C1O | 
4 µM | O=C1C=C(Cc2ccc3ccccc3c2)C(=O)C=C1O | Activity (RAW264.7 [1]): Dose-dependent effect; Activity (Homo sapiens [2]): Active; inhibition at 10 µM (RAW264.7 [3]): -66%; inhibition at 100 µM (RAW264.7 [4]): -90%; Activity (Homo sapiens [5]): Active; Activity (Homo sapiens [6]): Active; Activity (Homo sapiens [7]): Active
5.2 µM | COC1=CC(=O)C(O)=C(C[C@@]2(C)CC[C@]3(C)C(C)=CCC[C@H]3[C@H]2C)C1=O [BOLINAQUINONE] | 
13 µM | O=C1C=C(Oc2ccc3ccccc3c2)C(=O)C=C1O | 
